Results on two compounds are retold here after patent US20150164916A1, “ROFLUMILAST COMPOSITIONS FOR THE TREATMENT OF COPD” (Forest Laboratories Holdings Ltd., priority 2012, published 2015).

SMILES strings stand for the structures. Values joined by “and” are separate entries in the source; they are usually repeats but may differ in a detail not shown here. Equal entries are not always repeated. Where two headings read alike, the source gives them in different places.

Type in all cases: cell-based, human
Test [1] relates to IL-8 release. Kind of test: LPS- or CSE-induced IL-8 release in isolated peripheral blood neutrophils (ELISA). The following applies: for Maximal % Inhibition of IL-8 release / IC50: 6 h; for IC50: Homo sapiens, Neutrophil, read-out: -log IC50, inhibition of IL-8 release (converted). The protocol: (§1) Neutrophils and monocytes were isolated from peripheral venous blood by standard laboratory procedures. In brief, peripheral venous blood was mixed with dextran 500 at 3% (in 0.9% saline) in a proportion of 2:1. This mixture was incubated at room temperature for 30 min until erythrocytes were sedimented. The upper phase was carefully collected and added on Ficoll-Paque Histopaque 1077 (Amershan Pharmacia Biotech, Barcelona, Spain) density gradient in a proportion of 3:1. The two phases generated were centrifuged at 150 g, 4° C. for 30 min. Thus, the interface was collected to isolate monocytes, and the pellet obtained (which is consisted a mixture of neutrophils and low proportion of residual erythrocytes and traces of eosinophils and basophils) was resuspended in an erythrocyte lysis buffer (Biolegend, UK) for 5 min in ice. Cell suspension was washed two times with phosphate buffer (PBS).
(§2) CSE was prepared as previously outlined (Milara et al.; Ortiz et al.). Briefly, the smoke of a research cigarette (2R4F; Tobacco Health Research, University of Kentucky, KY, USA) was generated by a respiratory pump (Apparatus Rodent Respirator 680; Harvard, Germany) through a puffing mechanism related to the human smoking pattern (3 puff/min; 1 puff 35 ml; each puff of 2 s duration with 0.5 cm above the filter) and was bubbled into a flask containing 25 ml of pre-warmed (37° C.) RPMI 1640 culture medium supplemented as describe above. The CSE solution was sterilized by filtration through a 0.22-μm cellulose acetate sterilizing system (Corning, N.Y.). The resultant CSE solution was considered to be 100% CSE and was used for experiments within 30 min of preparation. CSE 10% corresponds approximately to the exposure associated with smoking two packs per day (Su et al., 1998). The quality of the prepared CSE solution was assessed based on the absorbance at 320 nm, which is the specific absorption wavelength of peroxynitrite. Stock solutions with an absorbance value of 3.0±0.1 were used. To test for cytotoxicity from CSE, isolated neutrophils and monocytes were treated with CSE concentrations of up to 5% for 24.
(§3) Peripheral neutrophil cell suspension was adjusted to 500×10^3 cells per well in 24-well plates and incubated in RPMI culture medium for 1 h into the incubator at 37° C., 5% CO2. […] Both the stimulus and drug were remained together for 6 h. Supernatants were collected and centrifuged at 120 g for 5 min, and the free-cell supernatant was used to measure IL-8, MMP-9, IL-1β, GM-CSF and CCL-5.
(§4) IL-8 was determined by using commercially available enzyme-linked immunosorbent assay kit for IL-8 (R&D Systems, UK) according to the manufacturer's protocol. MMP-9, IL-1β, GM-CSF and CCL-5 were measured by LUMINEX technology according to the manufacturer's protocol.
(§5) Data were presented as mean±SEM. IC50 values were calculated for each drug and their combinations. Statistical analysis of results was carried out by analysis of variance (ANOVA) followed by Bonferroni test, by Student's t test, or by non-parametric tests as appropriate (GraphPad Software Inc, San Diego, Calif., USA). Significance was accepted when P<0.05. For clinical correlations of lung function and gene expression from neutrophils the non-parametric Spearman correlation analysis was carried out.
(In general: ELISA stands for enzyme-linked immunosorbent assay.)

Test [2] has as its system IL-1β release. The experiment in a line: LPS-induced IL-1β release in isolated peripheral blood neutrophils (LUMINEX). The settings on record: for IC50: Homo sapiens, Neutrophil. The procedure: as §1, §3, §4, §5
Test [3] deals with CCL-5 release. The experiment in a line: LPS-induced CCL-5 release in isolated peripheral blood neutrophils (LUMINEX). The following applies: for IC50: Homo sapiens, Neutrophil. The procedure:
as §1, §3, §4, §5

For test [4], the system named is MMP-9 release. Kind of test: LPS- or CSE-induced MMP-9 release in isolated peripheral blood neutrophils (LUMINEX). The following applies: for Maximal % Inhibition of MMP-9 release / IC50: 6 h; for IC50: Homo sapiens, Neutrophil, read-out: -log IC50, inhibition of MMP-9 release (converted). The protocol:
as §1, §2, §3, §4, §5

Test [5] has as its system intracellular ROS. Kind of test: Intracellular reactive oxygen species (ROS) by flow cytometry in whole blood neutrophils from COPD patients. The following applies: fMLP 1 μM or CSE 5%, 1 h, NAC 1 mM. The protocol:
Intracellular reactive oxygen species (ROS) were measured by a flow cytometry assay using 2′,7′-dichlorodihydrofluorescein diacetate (H2DCF-DA, Molecular Probes, UK) as previously outlined (Milara et al., 2010). H2DCF-DA was added for 15 min before stimulus to a final concentration of 5 μM to measure intracellular ROS. The bacterial peptide fMLP was added as stimulus at 1 μM […] to generate intracellular ROS (Elbim et al., 2001). In other experiments, to reproduce in vivo conditions, CSE 5% was added to generate intracellular ROS. Intracellular ROS was measured using fresh whole blood from COPD patients. Blood neutrophils were selected using CD16-Alexa Fluor 647 antibody (molecular probes, UK) as neutrophil marker, and CD14-PerCEP-Cy5.5 mouse antihuman (molecular probes, UK) as monocyte marker in an Epics Profile II flow cytometer. A total of 1 ml of whole blood was pre-incubated at 37° C. for 30 min with RNO ([…] (1 mM) and H2DCF-DA followed by fMLP 1 μM or CSE 5% stimulation for another 1 h. Then erythrocytes were lysed using a commercial erythrocyte lysis buffer (Biolegend, UK) for 10 min. Fluorescence intensity was measured in the polymorphonuclear region of whole blood in an Epics Profile II flow cytometer. Results were expressed as DCF fluorescence in relative fluorescence units (RFU).
To this end, whole blood was stimulated with the bacterial peptide fMLP 1 μM or with CSE 5% in presence or absence of RNO or NAC for 1 h.
For orientation: A flow cytometer gives signals particle by particle.

The test system of test [6] is MKP1. The experiment in a line: Real time RT-PCR of MKP1 mRNA in CSE-stimulated neutrophils from COPD patients. The following applies: RNO 1 nM and 1 μM, DEX 1 μM, RNO 1 nM plus DEX 1 μM, NAC 1 mM for 1 h, then CSE 5% 6 h. The procedure: (§6) Neutrophils and monocytes were isolated from peripheral venous blood by standard laboratory procedures. In brief, peripheral venous blood was mixed with dextran 500 at 3% (in 0.9% saline) in a proportion of 2:1. This mixture was incubated at room temperature for 30 min until erythrocytes were sedimented. The upper phase was carefully collected and added on Ficoll-Paque Histopaque 1077 (Amershan Pharmacia Biotech, Barcelona, Spain) density gradient in a proportion of 3:1. The two phases generated were centrifuged at 150 g, 4° C. for 30 min. […]
(§7) CSE was prepared as previously outlined (Milara et al.; Ortiz et al.). […] The quality of the prepared CSE solution was assessed based on the absorbance at 320 nm, which is the specific absorption wavelength of peroxynitrite. Stock solutions with an absorbance value of 3.0±0.1 were used. […]
(§8) Total RNA was obtained from isolated neutrophils under basal conditions or after different drug and stimulation periods defined above by using TriPure® Isolation Reagent (Roche, Indianapolis, USA). […] Relative quantification of these transcripts was determined with the 2^−ΔΔCt method using glyceraldehyde phosphate dehydrogenase (GAPDH) as endogenous control (Applied Biosystems; 4352339E) and normalized to control group as previously described (Milara et al., 2009).
(§9) Then, mRNA was isolated and quantified for different genes.

For test [7], the system named is PI3Kδ. Kind of test: Real time RT-PCR of PI3Kδ expression in CSE-stimulated neutrophils from COPD patients. The following applies: RNO 1 nM and 1 μM, DEX 1 μM, RNO 1 nM plus DEX 1 μM, NAC 1 mM, CSE 5%. The protocol: as §6, §7, §8, §9
In test [8] the test system is p-ERK1/2. Kind of test: Western blot of ERK1/2 phosphorylation in CSE-stimulated neutrophils from COPD patients. The settings on record: RNO 1 nM and 1 μM, DEX 1 μM, RNO 1 nM plus DEX 1 μM, NAC 1 mM for 1 h, then CSE 5% 20 min. The procedure: as §6, §7
Western blot analysis was used to detect changes in p-ERK1/2 (42-44 kD). […] Cells were then centrifuged and the total protein was extracted using a lysis buffer consisting of a complete inhibitor cocktail plus 1 mM ethylenediaminetetraacectic acid (Roche Diagnostics Ltd, West Sussex, UK) with 20 mM Tris base, 0.9% NaCl, 0.1% Triton X-100, 1 mM dithiothreitol and 1 μg mL^−1 pepstatin A. The Bio-Rad assay (Bio-Rad Laboratories Ltd., Herts, UK) was used (following manufacturer's instructions) to quantify the level of protein in each sample to ensure equal protein loading. […]
Background: In western blotting, separated proteins are transferred to a membrane and probed.

The test system of test [9] is MIF. Kind of test: Real time RT-PCR of MIF mRNA in CSE-stimulated neutrophils from COPD patients. The following applies: RNO 1 nM and 1 μM, DEX 1 μM, RNO 1 nM plus DEX 1 μM, NAC 1 mM for 1 h, then CSE 5% 6 h. The protocol: as §6, §7, §8, §9
The subject of test [10] is HDAC2. Kind of test: Real time RT-PCR of HDAC2 expression in CSE-stimulated neutrophils from COPD patients. The settings on record: RNO 1 nM and 1 μM, DEX 1 μM, RNO 1 nM plus DEX 1 μM, NAC 1 mM, CSE 5%. The protocol:
as §6, §7, §8, §9

Test [11] has as its system GCβ. Kind of test: Real time RT-PCR of GCβ mRNA in CSE-stimulated neutrophils from COPD patients. The settings on record: RNO 1 nM and 1 μM, DEX 1 μM, RNO 1 nM plus DEX 1 μM, NAC 1 mM, CSE 5%. The procedure:
as §6, §7, §8, §9

[12] abbreviates: CSE 5%, neutrophils from COPD patients.
Setting [13] is: CSE 5%, neutrophils from HEALTHY.
The mark [14] stands for this setting: LPS (1 μg/ml), neutrophils from COPD patients.
Where [15] appears, read: LPS (1 μg/ml), neutrophils from HEALTHY.
Where [16] appears, read: LPS (1 μg/ml), 6 h, neutrophils from COPD patients.
Where [17] appears, read: LPS (1 μg/ml), 6 h, neutrophils from HEALTHY.
The mark [18] stands for this setting: COPD neutrophils stimulated with LPS or CSE, LY-294002 10 μM, NAC 1 mM.

A word on the IC50: it is the concentration at which inhibition is half-maximal. On to `C[C@@H]1C[C@H]2[C@@H]3CCC4=CC(=O)C=C[C@]4(C)[C@@]3(F)[C@@H](O)C[C@]2(C)[C@@]1(O)C(=O)CO` [DEX, dexamethasone], for which the “Maximal % Inhibition of IL-8 release” value in test [1] (setting [12]) is reported as 20.6%; in test [1] (setting [13]), 94.33 ± 21.7%; in [1] (setting [14]) it was 15%; in test [1] (setting [15]), 67.08 ± 11.41%. Moreover, the IC50 in test [1] (setting [12]) was 15.5 nM; in test [1] (setting [13]) it was 17 nM; in test [1] (setting [14]), 42.7 nM; in [1] (setting [15]), 47.9 nM; in test [2] (6 h, LPS (1 μg/ml), 6 h, neutrophils from COPD patients, read-out: -log IC50, inhibition of IL-1β release (converted)), 45.7 nM; in [2] (6 h, LPS (1 μg/ml), 6 h, neutrophils from HEALTHY, read-out: -log IC50, inhibition of IL-1β release (converted)), 10.7 nM. Besides, the IC50 is 45.7 nM in test [2] (LPS, neutrophils from COPD patients, read-out: -log IC50, IL-1β release (converted)); 10.7 nM in test [2] (LPS, neutrophils from healthy volunteers, read-out: -log IC50, IL-1β release (converted)); 32.4 nM in test [3] (6 h, LPS (1 μg/ml), 6 h, neutrophils from COPD patients, read-out: -log IC50, inhibition of CCL-5 release (converted)); 7.24 nM in test [3] (6 h, LPS (1 μg/ml), 6 h, neutrophils from HEALTHY, read-out: -log IC50, inhibition of CCL-5 release (converted)); 32.4 nM in test [3] (LPS, neutrophils from COPD patients, read-out: -log IC50, CCL-5 release (converted)); 7.24 nM in [3] (LPS, neutrophils from healthy volunteers, read-out: -log IC50, CCL-5 release (converted)). Besides, the IC50 is 2.19 nM in test [4] (setting [12]), 1.38 nM in [4] (setting [13]), 46.8 nM in test [4] (setting [14]) and 6.03 nM in [4] (setting [15]). Also, the “Maximal % Inhibition of IL-1β release” value in [2] (setting [16]) worked out at 77.16 ± 5.69%; in test [2] (setting [17]) it was 79.58 ± 5.57%. Further, the “Maximal % Inhibition of CCL-5 release” value in test [3] (setting [16]) came out at 86.30 ± 10.16%; in [3] (setting [17]) it was 83.78 ± 8.64%. Moreover, the “Maximal % Inhibition of MMP-9 release” value was 15.4% and 15.44 ± 6.95 % in [4] (setting [12]); 83.9 ± 5.79% in [4] (setting [13]); 8.8% in [4] (setting [14]); 96.8 ± 5.1% in [4] (setting [15]).

`CC(=O)N[C@@H](CS)C(=O)O` [NAC, N-acetyl-1-cysteine]: in test [5], the “effect on ROS generation in neutrophils” value was “inhibited”. Moreover, the “effect on CSE-induced down-regulation of MKP1 mRNA expression” value in test [6] is on record as “effectively increased”. Besides, the “effect on CSE-induced PI3Kδ upregulation” value in [7] was “inhibited”. Also, the “effect on CSE-induced phosphorylation of ERK1/2” value in test [8] was “inhibited”. Moreover, the “rescue of DEX anti-inflammatory effect on IL-8 release” value in [1] (setting [18]) is on record as “able to rescue DEX anti-inflammatory effect”. In test [9], the “effect on CSE-induced increase of MIF mRNA expression” value is “reduced”. In [10], the “effect on CSE-induced HDAC2 downregulation” value is recorded as “inhibited”. Further, the “rescue of DEX anti-inflammatory effect on MMP-9 release” value in test [4] (setting [18]) was “able to rescue DEX anti-inflammatory effect”. Also, the “effect on CSE-induced GCβ upregulation” value in test [11] was “inhibited”.
